Reference: patent US20060189581A1, “Compounds and methods for treating transplant rejection” (AtheroGenics, Inc., priority 1997, published 2006)
“Also recorded” adds a separate entry of the source. Like-named read-outs stand apart in the source and are kept apart here.

Legend:
[1] = Plasma compound levels in the rat aortic allograft study; type: in vivo; conditions: Lewis, subcutaneous, after 90 days of dosing, read-out: trough plasma levels
Protocol: (§1) Compound A was administered subcutaneously to recipient animals three days prior to the surgery and once daily for 90 days thereafter. […] Thereafter, the dose was reduced to 30 mg/kg/d for 6 days and then further reduced to 5 mg/kg/d for the remainder of the study.
(§2) On day 90, the allograft segment was removed, fixed in 10% buffered formalin and paraffin embedded. Sections were stained with von Geisson's elastic stain, and intima-to-media area (IM) ratio and percent luminal narrowing (% LN) were assessed by digital morphometry (See FIGS. 1 and 2). Blood was collected at regular intervals throughout the study and plasma evaluated for compound levels (See FIG. 3).

[2] = test system: ACI rat aorta transplanted into Lewis rat (graft arteriosclerosis); assay: Rat aortic allograft model (graft arteriosclerosis); type: in vivo
Protocol: Compound A was evaluated for graft arteriosclerosis resulting from aortic heterotropic transplantation. This is a model of graft arteriopathy which is the major obstacle to long term success of solid organ transplantation.
Donor descending aortas from ACI rats were heterotypically transplanted into Lewis rat abdomens in end-to-end fashion with minimal ischemic time. 55 rats were assigned to five groups as follows:
as §1, §2

Compound `CC(C)(Sc1cc(C(C)(C)C)c(O)c(C(C)(C)C)c1)Sc1cc(C(C)(C)C)c(OCCCC(=O)O)c(C(C)(C)C)c1` [Compound A, 4-[4-[[1-[[3,5-bis(1,1-dimethylethyl)-4-hydroxyphenyl]thio]-1-methylethyl]thio]-2,6-bis(1,1-dimethylethyl)phenoxy]butyric acid] has a concentration at 90 days ([1]; 10 mg/kg/d subcutaneously) of 10 µM, a concentration at 90 days ([1]; 20 mg/kg/d subcutaneously) of 18 µM and a concentration at 90 days ([1]; 40/30/5 mg/kg/d subcutaneously) of 28 µM. The “IM ratio and % LN compared to the vehicle group” value ([2]; 20 mg and 40/30/5 mg/kg/d doses, day 90) was “significantly lower”, the “efficacy and gross toxicity” value ([2]; 20 mg/kg/d subcutaneously) was “efficacious without grossly discernable toxic side effects” and the “adverse findings (body weight, skin)” value ([2]; 40 mg/kg/d subcutaneously, until the dose was reduced) was “failure to gain weight and skin irritation; also recorded: initially lost weight”. For the same compound, the “inhibition of aortic neointimal growth” value ([2]; 10, 20 and 40/30/5 mg/kg/d subcutaneously, 90 days) was “dose-dependent inhibition”, the tolerability of treatment ([2]; 10 and 20 mg/kg/d subcutaneously, animals regained weight post surgery) was “well tolerated” and the “percent inhibition of the % LN (percent luminal narrowing)” value ([2]; 40/30/5 mg/kg/d subcutaneously, day 90, compared to vehicle control) was 52%.
